Experimental data published in patent US20190054097A1, “COMPOSITIONS TARGETING SENESCENT CELLS AND THE USES THEREOF” (BioVentures, LLC, priority 2016, published 2019).

What was measured:
senescent cells [1] = assay: Cisplatin-induced peripheral neuropathy (CIPN) in C57BL/6 mice, Von Frey assay and Hot Plate Analgesia Meter; assay type: in vivo; details: 50 mg/kg/day i.p., 5 days per cycle, 2 cycles, mechanical sensitivity and thermal allodynia, FIG. 5-7
Experimental: (§1) CIPN was induced in young adult male and female C57BL/6 mice by intraperitoneal (i.p.) injection of Cisplatin (Lake Zurich, Ill., USA) at 2.3 mg/kg/d for 5 days per cycle for 2 cycles with an interval of 5 days between the cycles. The induction of CIPN was measured by analyzing the mechanical sensitivity using the Von Frey assay the day before Cisplatin treatment and on various day after Cisplatin treatment
Mice were treated as described in FIG. 1. The induction of CIPN was measured by analyzing the sensitivity to thermal allodynia using the Hot Plate Analgesia Meter on various day after Cisplatin treatment. N=10 for control group and 5 for Cisplatin-treated groups. ***p<0.001 vs. Control.
To determine the effect of senescent cells on the induction of CIPN, Cisplatin-treated mice were administered with vehicle or ABT263 at 50 mg/kg/day for 5 days per cycle for 2 cycles with an interval of 17 days between the cycles by i.p. injection at the indicated times after Cisplatin treatment. The induction of CIPN was measured by analyzing the mechanical sensitivity using the Von Frey assay (FIG. 5 and FIG. 6) and by analyzing the sensitivity to thermal allodynia using the Hot Plate Analgesia Meter (FIG. 7) the day before Cisplatin treatment and on various day after Cisplatin treatment.

senescent cells [2] = assay: Cisplatin-induced peripheral neuropathy (CIPN) in p16-3MR transgenic mice, Von Frey assay and Hot Plate Analgesia Meter; assay type: in vivo; details: GCV 25 mg/kg/day or ABT263 50 mg/kg/day i.p., 5 days per cycle, 2 cycles, FIG. 8-11
Experimental: as §1, with “and female p16-3MR mice by” for “and female C57BL/6 mice by”, “injection of cisplatin (Lake Zurich,” for “injection of Cisplatin (Lake Zurich,”, “after Cisplatin treatment. N=5-6 mice per group.” for “after Cisplatin treatment”
Mice were treated as described in FIG. 8. The induction of CIPN was measured by analyzing the sensitivity to thermal allodynia using the Hot Plate Analgesia Meter on various day after Cisplatin treatment. N=5-6 mice per group.
To determine the effect of senescent cells on the induction of CIPN, cisplatin-treated mice were administered with vehicle, ganciclovir (GCV) at 25 mg/kg/day for 5 days per cycle for 2 cycles with an interval of 17 days between the cycles, or ABT263 at 50 mg/kg/day for 5 days per cycle for 2 cycles with an interval of 17 days between the cycles by i.p. injection at the indicated times after cisplatin treatment. […] The induction of CIPN was measured by analyzing the mechanical sensitivity using the Von Frey assay (FIG. 8 and FIG. 9) and by analyzing the sensitivity to thermal allodynia using the Hot Plate Analgesia Meter (FIG. 10 and FIG. 11) the day before Cisplatin treatment and on various day after Cisplatin treatment.

senescent osteocytes = assay: Five-day administration to aged mice: western blot and qPCR of osteocyte-enriched femoral bone shafts; assay type: in vivo, 24-month-old female mice
Experimental: ABT-263 or its derivative Bcl-PROTAC (or vehicles) were administered by daily i.p. injections for 5 days to 24-month-old female mice. […] We have shown that γ-H2AX, p16, GATA4, RANKL and MMP-13 increase, while OPG and Wnt10b decrease with age in bone of female and male mice (Piemontese et al., 2017 JCI Insight).
Osteocyte-enriched femoral cortical bone was prepared by removing the ends, flushing the bone marrow by centrifugation, and removal of surface cells by scraping with a scalpel. Bone fragments were immediately frozen in liquid nitrogen and pulverized. Proteins were extracted with a buffer containing 20 mM Tris-HCL, 150 mM NaCl, 1% Triton X-100, protease inhibitor mixture, and phosphatase inhibitor cocktail (Sigma-Aldrich) on ice for 30 min and then keep on −80° C. for overnight. The protein concentration of the bone extract was determined using the DC Protein Assay Kit (Bio-Rad). The extracted protein ([…] per sample) was subjected to 15% SDS-PAGE gels and transferred electrophoretically onto PVDF membranes. The membranes were blocked in 5% fat-free milk/Tris-buffered saline for 120 min and incubate with each primary antibody followed by secondary antibodies conjugated with horseradish peroxidase. […] Bound antibodies were detected with ECL reagents (Millipore), and imaged and quantified with a VersaDoc™ imaging system (Bio-Rad).
(§2) Total RNA was extracted with Ultraspec (Biotecx Laboratories) and reverse-transcribed using the High-Capacity cDNA Archive Kit (Applied Biosystems) according to the manufacturer's instructions. TaqMan quantitative real-time PCR was performed using the following primers from Applied Biosystems: Rankl (Mm00441908_m1); Mmp-13 (Mm00439491_m1); OPG (Mm00435452_m1); Wnt10b (Mm00442104_m1); IL-1α (Mm99999060_m1); Sdf-1 (Mm00445553_m1); p21 (Mm00432448_m1). Target gene expression was calculated by normalizing to the housekeeping gene ribosomal protein S2 (Mm00475528_m1) using the ΔCt method (Livak and Schmittgen, 2001).

[3] = tested on: bone marrow stromal cells; assay: Five-day administration to aged mice: ex vivo bone marrow stromal cell cultures (qPCR, osteoblast and adipocyte differentiation); assay type: in vivo, 24-month-old female mice
Excerpt: We also isolated bone marrow stromal cells from mice treated with vehicle or the senolytics and cultured them for 5 days.
Conversely, bone marrow cells from the mice treated with senolytics cultured in the presence of adipogenic medium had decreased adipogenic potential (FIG. 14C).
as §2
Total bone marrow cells pooled from 3-5 mice from each group were cultured with 20% FBS, 1% PSG and […] of ascorbic acid in 10-cm culture dishes for 5 days. Half of the medium was replaced every 3 days. Bone marrow-derived osteoprogenitor cells were re-plated into 12-well plates and cultured with […] of ascorbic acid and 10 mM b-glycerophosphate for 21 days. Mineralized matrix was stained with 40 mM Alizarin Red solution.
Bone marrow-derived stromal cells were cultured to 70% confluence, and the media supplemented with rosiglitazone (5 nM/m1) or with 3.3% BSA in PBS as vehicle control. Medium containing ligand was changed every 2 d for 11 d. Cells were fixed in 10% formalin in PBS, rinsed, and stained for 30 min with 0.15% Oil Red 0 (Sigma) in a 55:45 mix of isopropanol and water. Cells were counterstained with 0.5% methyl green (Fisher Scientific, Fairlawn, N.J.) in 0.1 M sodium acetate, pH4. Oil Red 0 staining was quantified after extraction of the dye with 1 ml isopropanol and absorbance determination at 490 nm.

osteoclast progenitors = assay: Five-day administration to aged mice: osteoclast differentiation from bone marrow macrophages; assay type: in vivo, 24-month-old female mice; details: bone marrow macrophages from treated mice, cultured with RANKL and M-CSF for 5 days, FIG. 15A and 15B
Experimental: In summary, short-term administration of ABT-263 or Bcl-PROTAC to aged mice decreases senescent osteoprogenitors and osteocytes, as well as the SASP and osteoclastogenesis.
Bone marrow cells were obtained by flushing the tibiae and femurs from the 24 month-old female mice with α-MEM medium (Invitrogen). After the red blood cells were removed with ACK buffer (0.01 mM EDTA, 0.011 M KHCO3, and 0.155 M NH4Cl, pH 7.3), we suspended the cells in α-MEM complete media containing 10% (v/v) fetal bovine serum, 100 U ml-1 penicillin, and 100 μg ml-1 streptomycin and incubated the cells for 24 h in the presence of 10 ng ml-1 M-CSF. We collected the non-adherent cells and cultured with 30 ng ml-1 M-CSF for 3 days to generate bone marrow-derived macrophages. […] We fixed the osteoclast cultures with 10% neutral buffered formalin for 15 min and stained for tartrate-resistant acid phosphatase (TRAP) using the Leukocyte Acid Phosphatase Assay Kit, following the manufacturer's instructions (Sigma-Aldrich). For all assays we plated cells in triplicate.

platelets = details: administration to subjects; platelets rely on Bcl-xl for survival; cited from earlier work
[4] = femoral extracts, qPCR, FIG. 12B
[5] = bone marrow-derived stromal cells from treated mice, ex vivo culture, FIG. 13

CC1(C)CCC(c2ccc(Cl)cc2)=C(CN2CCN(c3ccc(C(=O)NS(=O)(=O)c4ccc(N[C@H](CCN5CCOCC5)CSc5ccccc5)c(S(=O)(=O)C(F)(F)F)c4)cc3)CC2)C1 [ABT-263, (R)-4-(4-((4′-chloro-4,4-dimethyl-3,4,5,6-tetrahydro-[1,1′-biphenyl]-2-yl-)methyl)piperazin-1-yl)-N-((4-((4-morpholino-1-(phenylthio)butan-2-yl)amin-o)-3-((trifluoromethyl)sulfonyl)phenyl)sulfonyl)benzamide]
Reversal of cisplatin-induced peripheral neuropathy (senescent cells [1]): reversed Cisplatin-induced peripheral neuropathy (CIPN) | Reversal of cisplatin-induced peripheral neuropathy (senescent cells [2]): reversed cisplatin-induced peripheral neuropathy (CIPN) | mRNA for OPG (senescent osteocytes; [4]): increased the mRNA for OPG | mRNA for RANKL and MMP13 (senescent osteocytes; [4]): decreased the mRNA for RANKL and MMP13 | Markers of cell senescence: protein levels of γ-H2AX, p16 and GATA4 (senescent osteocytes; osteocyte-enriched femoral bone shafts, daily i.p. for 5 days, western blot, FIG. 12A): decreased marker of cell senescence | Expression of p21 [3, 5]: decreased expression of p21 | mRNA levels of RANKL, MMP-13, IL-1a and SDF-1 [3, 5]: decreased mRNA levels of RANKL and MMP-13, as well as IL-1a and SDF-1 | Osteoblastogenic potential (Alizarin Red staining) ([3]; stromal cells from treated mice, 21 days in osteogenic medium, FIG. 14A and 14B): promotes osteoblastogenesis | Osteoclastogenic potential (TRAP-positive multinucleated cells) (osteoclast progenitors): decreased osteoclastogenic potential | Thrombocytopenia (platelets): cause thrombocytopenia
